From patent US20260217652A1, “PHENYL-SUBSTITUTED HETEROARYL COMPOUND AND PHARMACEUTICAL COMPOSITION COMPRISING SAME, PREPARATION METHOD THEREFOR AND USE THEREOF” (SHANGHAI MEIYUE BIOTECH DEVELOPMENT CO., LTD., priority 2023, published 2026)
pIC50: −log10 of the molar value.

Target: T1, p38 MAPK/MK2 (Homo sapiens, UniProt Q16539)
T1 construct: purchased Carna (p38α); Abcam (MK2) 04-152; 79910
Assay: In vitro activity assay of p38 MAPK/MK2 (Z-LYTE kinase assay kit)
Format: biochemical
Details: active p38α, inactive MK2, Ser/Thr 4; 1-hour reaction at 20° C.
Description: (§1) The inhibitory effect of the compound on p38 MAPK/MK2 was evaluated using the Z-LYTE kinase assay kit (Thermo, PV3177). The test compound was dissolved in DMSO to obtain a 10 mM stock solution and stored at −20° C. for future use. The initial concentration of the compound was […], with 1% DMSO, 5-fold serial dilution, 8 concentrations, and duplicate wells. […] After a 1-hour reaction at 20° C., Development Reagent A diluted 2048-fold was added to each well, followed by incubation at room temperature for 1 hour. The reaction was terminated by adding 5 μL of stop buffer, and the plate was read using a microplate reader (Ex. 400 nm, Em. 445 nm; Ex. 400 nm, Em. 520 nm). The concentration-effect curve was fitted using GraphPad Prism 8 software, and the compound concentration resulting in 50% inhibition, IC50, was calculated.

T1 sequence (Q16539 whole entry): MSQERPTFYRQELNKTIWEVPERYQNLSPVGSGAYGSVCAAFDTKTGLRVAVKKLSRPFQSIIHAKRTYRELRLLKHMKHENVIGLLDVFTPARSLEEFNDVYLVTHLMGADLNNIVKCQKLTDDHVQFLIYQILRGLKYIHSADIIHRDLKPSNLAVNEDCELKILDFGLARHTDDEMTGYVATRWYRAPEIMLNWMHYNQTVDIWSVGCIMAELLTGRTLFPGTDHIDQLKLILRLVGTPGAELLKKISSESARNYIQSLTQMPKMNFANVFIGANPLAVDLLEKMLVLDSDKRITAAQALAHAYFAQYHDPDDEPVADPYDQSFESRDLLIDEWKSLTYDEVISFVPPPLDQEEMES
T1 sequence (P49137 whole entry partner): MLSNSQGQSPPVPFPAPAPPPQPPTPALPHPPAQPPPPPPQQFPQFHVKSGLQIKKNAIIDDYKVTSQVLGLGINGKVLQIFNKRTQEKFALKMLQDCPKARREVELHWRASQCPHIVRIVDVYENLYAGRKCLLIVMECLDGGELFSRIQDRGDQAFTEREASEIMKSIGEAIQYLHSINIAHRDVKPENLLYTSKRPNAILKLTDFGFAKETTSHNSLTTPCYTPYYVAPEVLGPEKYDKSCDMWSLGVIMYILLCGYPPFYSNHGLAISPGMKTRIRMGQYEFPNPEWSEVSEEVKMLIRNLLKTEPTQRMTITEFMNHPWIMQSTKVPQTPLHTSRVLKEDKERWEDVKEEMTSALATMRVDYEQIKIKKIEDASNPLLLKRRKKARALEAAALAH

Row | SMILES | pIC50
1 | CNC(=O)c1cccc(-c2cc(-n3c(C)cc(OCc4ncc(F)cc4F)c(Cl)c3=O)c(C)cn2)c1F (single isomer, unassigned) [Compound 20-P2] | 9.57
2 | Cc1cnc(-c2cccc(C(=O)N(C)C)c2)cc1-n1c(C)cc(OCc2ncc(F)cc2F)c(Cl)c1=O [Compound 3] | 7.66
3 | Cc1cnc(-c2cccc(S(C)(=O)=O)c2)cc1-n1c(C)cc(OCc2ncc(F)cc2F)c(Cl)c1=O [Compound 11] | 7.84
4 | CNC(=O)c1cccc(-c2cc(-n3c(C)cc(OCc4ncc(F)cc4F)c(Cl)c3=O)c(C)cn2)c1F [Compound 20] | 8.99
5 | Cc1cnc(-c2cccc(C(N)=O)c2)c(F)c1-n1c(C)cc(OCc2ncc(F)cc2F)c(Cl)c1=O [Compound 30-P1] | 9.80

Target: T2, p38 MAPK/MK5 (Homo sapiens, UniProt Q16539)
T2 construct: purchased Carna (p38α); Abcam (MK5) 04-152; 217826
Assay: In vitro activity assay of p38 MAPK/MK5 (Z-LYTE kinase assay kit)
Format: biochemical
Details: active p38α, inactive MK5, Ser/Thr 4; 4-hour reaction at 20° C.
Description: as §1, with “MAPK/MK5” for “MAPK/MK2”, “4-hour” for “1-hour”, “µL” for “μL”

T2 sequence (Q16539 whole entry): as the sequence (Q16539 whole entry) above

Row | SMILES | pIC50
6 | Cc1cnc(-c2cccc(C(=O)N(C)C)c2)cc1-n1c(C)cc(OCc2ncc(F)cc2F)c(Cl)c1=O [Compound 3] | < 5.00
7 | Cc1cnc(-c2cccc(C(N)=O)c2)c(F)c1-n1c(C)cc(OCc2ncc(F)cc2F)c(Cl)c1=O [Compound 30-P1] | 5.25

Tested on: TNF-α in human PBMC cells
Assay: In vitro TNF-α activity assay in human PBMC cell supernatant (LPS, ELISA)
Format: cell-based
Details: Homo sapiens, PBMC, 24 h, LPS 100 ng/mL, read-out: p38 MAPK/TNF-α IC50
Description: The inhibitory effect of the compound on TNF-α in the supernatant of human PBMC cells was evaluated using an ELISA detection kit (Beyotime, PI518). The test compound was dissolved in DMSO to obtain a 10 mM stock solution and stored at −20° C. for future use. The initial concentration of the compound was […], followed by 5-fold serial dilution to obtain 6 concentrations. Cells were plated in duplicate, and ELISA was performed in single wells. The final concentration of DMSO was 0.4%. Alternatively, the initial concentration of the compound, dilution factor, number of concentration gradients, and replicates could be adjusted based on the specific screening conditions.
Fresh human peripheral blood mononuclear cells (PBMCs) (Sailybio) were seeded at a density of 2×10^5 cells per well in a 96-well plate (Corning, 3599), with each well containing 100 μL of RPMI-1640 (Gibco #A1049101)+10% FBS (Gibco, 10099141C), and incubated overnight at 37° C. under 5% CO2. Test compounds were added to the 96-well culture plate at a volume of 25 μL per well. After 1 hour, 5 μL of LPS was added to achieve a final concentration of 100 ng/mL. No LPS and compound were added to the negative control wells, and no compound was added to the positive control wells. The mixture was further incubated for 24 hours at 37° C. under 5% CO2. Subsequently, the cell culture supernatant was collected by centrifugation at 500 rcf for 8 minutes. The concentration of TNF-α was measured according to the operation manual of the ELISA kit. The concentration-effect curve was fitted using GraphPad Prism 8 software, and the compound concentration resulting in 50% inhibition, IC50, was calculated.

Row | SMILES | pIC50
8 | Cc1cnc(-c2cccc(S(C)(=O)=O)c2)cc1-n1c(C)cc(OCc2ncc(F)cc2F)c(Cl)c1=O [Compound 11] | 7.74
9 | Cc1cnc(-c2cccc(C(N)=O)c2)c(F)c1-n1c(C)cc(OCc2ncc(F)cc2F)c(Cl)c1=O [Compound 30-P1] | 8.06

Same assay, conditions: LPS 100 ng/mL, 24 hours, read-out: p38 MAPK/TNF-α IC50

Row | SMILES | pIC50
10 | CNC(=O)c1cccc(-c2cc(-n3c(C)cc(OCc4ncc(F)cc4F)c(Cl)c3=O)c(C)cn2)c1F (single isomer, unassigned) [Compound 20-P2] | 8.38
11 | CNC(=O)c1cccc(-c2cc(-n3c(C)cc(OCc4ncc(F)cc4F)c(Cl)c3=O)c(C)cn2)c1F [Compound 20] | 8.06

Tested on: not listed separately
Assay: In vitro liver microsome stability, mouse
Format: in vitro ADME
Details: liver microsomes, 0.5 mg/mL microsomes, 1 μM compound, NADPH, 37° C., read-out: Mouse liver microsomes Half-life T1/2
Description: (§2) The reference compound used in this experiment was Ketanserin, and the final concentration of microsomes in the experimental system was 0.5 mg/mL. The PBS buffer was a 50 mM K2HPO4 buffer. The concentration of the test compound was 1 μM. The microsomes were added to PBS, and the control/test compounds were respectively added to the corresponding reaction systems, mixed thoroughly, and pre-incubated in a 37° C. water bath for 5 minutes. The reaction was initiated by adding 20 mM NADPH solution under 37° C. water bath conditions (for the No NADPH samples, an equal volume of PBS solution was used as a substitute for the 20 mM NADPH solution). At the reaction time points of 0 min, 10 min, 30 mun, 60 min, and 90 min, 30 μL of reaction samples were taken from each reaction system (for the No NADPH samples, sampling was performed at 0 min and 90 min), and the reaction was immediately terminated by adding 300 μL of the internal standard acetonitrile solution. After centrifugation at 4000 rpm, the supernatant was taken and mixed thoroughly with an equal volume of pure water. The samples at each time point were analyzed by LC-MS/MS (AB Triple Quard 5500) to determine the compound content, and the T1/2 was calculated.

Row | SMILES | half-life at 1 μM [h]
12 | CNC(=O)c1cccc(-c2cc(-n3c(C)cc(OCc4ncc(F)cc4F)c(Cl)c3=O)c(C)cn2)c1F (single isomer, unassigned) [Compound 20-P2] | > 4.66
13 | Cc1cnc(-c2cccc(S(C)(=O)=O)c2)cc1-n1c(C)cc(OCc2ncc(F)cc2F)c(Cl)c1=O [Compound 11] | 4.22

Tested on: not listed separately
Assay: In vitro liver microsome stability, rat
Format: in vitro ADME
Details: liver microsomes, 0.5 mg/mL microsomes, 1 μM compound, NADPH, 37° C., read-out: Rat liver microsomes Half-life T1/2
Description: as §2

Row | SMILES | half-life at 1 μM [h]
14 | CNC(=O)c1cccc(-c2cc(-n3c(C)cc(OCc4ncc(F)cc4F)c(Cl)c3=O)c(C)cn2)c1F (single isomer, unassigned) [Compound 20-P2] | > 4.66
15 | Cc1cnc(-c2cccc(S(C)(=O)=O)c2)cc1-n1c(C)cc(OCc2ncc(F)cc2F)c(Cl)c1=O [Compound 11] | 3.79

Tested on: not listed separately
Assay: In vitro liver microsome stability, human
Format: in vitro ADME
Details: liver microsomes, 0.5 mg/mL microsomes, 1 μM compound, NADPH, 37° C., read-out: Human liver microsomes Half-life T1/2
Description: as §2

Row | SMILES | half-life at 1 μM [h]
16 | CNC(=O)c1cccc(-c2cc(-n3c(C)cc(OCc4ncc(F)cc4F)c(Cl)c3=O)c(C)cn2)c1F (single isomer, unassigned) [Compound 20-P2] | > 4.66
17 | Cc1cnc(-c2cccc(S(C)(=O)=O)c2)cc1-n1c(C)cc(OCc2ncc(F)cc2F)c(Cl)c1=O [Compound 11] | > 4.66

Tested on: not listed separately
Assay: Pharmacokinetic evaluation in mice
Format: in vivo
Details: mouse, plasma, intravenous injection group 1 mg/kg, read-out: Area under curve AUC0-24 h
Description: The compound was weighed and dissolved in a mixed solvent of DMAC: Solutol: PBS (1:1:8. After intravenous/gastric administration to mice, whole blood ([…]) was collected at 0.083, 0.25, 0.5, 1, 2, 4, 7, and 24 hours. The samples were anticoagulated with EDTA-K2, immediately centrifuged at 4000 rpm for 5 minutes at 4° C., and the supernatant was frozen in a −80° C. refrigerator. Plasma sample processing: The samples were precipitated with an internal standard-containing CH3CN precipitant, followed by centrifugation at 12700 rpm for 10 min. The supernatant was collected and analyzed by LC-MS/MS (AB Triple Quard 5500) to obtain the plasma drug concentration. The parameters were calculated using a non-compartmental model in Winnolin version 8.1.

Row | SMILES | AUC(0-t) [ng·h/mL]
18 | Cc1cnc(-c2cccc(C(N)=O)c2)c(F)c1-n1c(C)cc(OCc2ncc(F)cc2F)c(Cl)c1=O [Compound 30-P1] | 1100

Same assay, conditions: mouse, plasma, intravenous injection group 1 mg/kg, read-out: Clearance CL (converted)

Row | SMILES | clearance [mL/min/kg]
19 | Cc1cnc(-c2cccc(C(N)=O)c2)c(F)c1-n1c(C)cc(OCc2ncc(F)cc2F)c(Cl)c1=O [Compound 30-P1] | 15.2

Same assay, conditions: mouse, plasma, intravenous injection group 1 mg/kg, read-out: Half-life T1/2 (converted)

Row | SMILES | half-life [h]
20 | Cc1cnc(-c2cccc(C(N)=O)c2)c(F)c1-n1c(C)cc(OCc2ncc(F)cc2F)c(Cl)c1=O [Compound 30-P1] | 0.47

Same assay, conditions: mouse, plasma, intravenous injection group 1 mg/kg, read-out: Initial concentration C0

Row | SMILES | C0 [ng/mL]
21 | Cc1cnc(-c2cccc(C(N)=O)c2)c(F)c1-n1c(C)cc(OCc2ncc(F)cc2F)c(Cl)c1=O [Compound 30-P1] | 2410

Same assay, conditions: mouse, plasma, intravenous injection group 1 mg/kg, read-out: Volume of distribution Vd

Row | SMILES | Vd [L/kg]
22 | Cc1cnc(-c2cccc(C(N)=O)c2)c(F)c1-n1c(C)cc(OCc2ncc(F)cc2F)c(Cl)c1=O [Compound 30-P1] | 0.41

Same assay, conditions: mouse, plasma, po, intragastric administration group 5 mg/kg, read-out: Area under curve AUC0-24 h

Row | SMILES | AUC(0-t) [ng·h/mL]
23 | Cc1cnc(-c2cccc(C(N)=O)c2)c(F)c1-n1c(C)cc(OCc2ncc(F)cc2F)c(Cl)c1=O [Compound 30-P1] | 2640

Same assay, conditions: mouse, plasma, po, intragastric administration group 5 mg/kg, read-out: Bioavailability F %

Row | SMILES | bioavailability [%]
24 | Cc1cnc(-c2cccc(C(N)=O)c2)c(F)c1-n1c(C)cc(OCc2ncc(F)cc2F)c(Cl)c1=O [Compound 30-P1] | 48

Same assay, conditions: mouse, plasma, po, intragastric administration group 5 mg/kg, read-out: Half-life T1/2 (converted)

Row | SMILES | half-life [h]
25 | Cc1cnc(-c2cccc(C(N)=O)c2)c(F)c1-n1c(C)cc(OCc2ncc(F)cc2F)c(Cl)c1=O [Compound 30-P1] | 3.31

Same assay, conditions: mouse, plasma, po, intragastric administration group 5 mg/kg, read-out: Maximum concentration Cmax

Row | SMILES | Cmax [ng/mL]
26 | Cc1cnc(-c2cccc(C(N)=O)c2)c(F)c1-n1c(C)cc(OCc2ncc(F)cc2F)c(Cl)c1=O [Compound 30-P1] | 1570
